Values quoted from earlier work as cited in patent publication US10166212B2, “Oral use of zinc and copper gluconates in the treatment of digital dermatitis” (DANTRACE, priority 2015, dated 2019).

How the values were obtained:
[1] = administered as pills of zinc oxide; remainder excreted in feces
[2] = test system: digital dermatitis lesions

Row | Structure (SMILES) | zinc taken up by the digestive system [1] | healing rate, treatment vs. control group ([2]; by day 34, P=0.01) | overall positive effect (healing and improvement), treatment vs. control ([2]; by day 34, P=0.05) | healing rate (change to M0) ([2]; by day 34 post-treatment, 10 g salicylic acid powder in bandage vs chlortetracycline spray control) | proportion of lesions getting smaller, treatment vs. control ([2]; by days 14 and 34, P<0.08) | healing rates between treatment groups ([2]; days 3 and 14)
1 | [O]=[Zn] [zinc oxide] | 20% |  |  |  |  | 
2 | O=C(O)c1ccccc1O [salicylic acid] |  | fivefold better | 1.75 fold | 13.6% | 2.5 times | did not differ significantly
